Measurements published in the CheMixHub viscosity set.
Where “and” joins values, the source holds several entries; their conditions need not be identical. Identical values can stand only once.

Test: xn = mol fraction of the nth substance listed

CCCNCCC + CCC(C)O
303.15 K, 101 kPa
Conditions | viscosity [mPa·s]
x1 = 0.009464 | 2.442
x1 = 0.02067 | 2.411
x1 = 0.03223 | 2.381
x1 = 0.04172 | 2.358
x1 = 0.04996 | 2.336
x1 = 0.05928 | 2.313
x1 = 0.07049 | 2.286
x1 = 0.08687 | 2.251
x1 = 0.09038 | 2.238

CCCCCl + CCC(C)O
viscosity [mPa·s], 101 kPa
Conditions | x1 = 0.0997 | x1 = 0.1976 | x1 = 0.3052 | x1 = 0.4049 | x1 = 0.497 | x1 = 0.606 | x1 = 0.7022 | x1 = 0.8053 | x1 = 0.9038
298.15 K | 1.98 | 1.379 | 1.015 | 0.8086 | 0.6823 | 0.5809 | 0.5176 | 0.469 | 0.4366
313.15 K | 1.234 | 0.9264 | 0.7261 | 0.6063 | 0.5279 | 0.4628 | 0.4198 | 0.3877 | 0.3663

Cc1cccc([N+](=O)[O-])c1 + Cc1cccc(C)c1
308.15 K, 101.33 kPa
Conditions | viscosity [mPa·s]
x2 = 0.1017 | 1.33
x2 = 0.2062 | 1.133
x2 = 0.3032 | 1.014
x2 = 0.4055 | 0.926
x2 = 0.5001 | 0.861
x2 = 0.6028 | 0.785
x2 = 0.6999 | 0.72
x2 = 0.8043 | 0.653
x2 = 0.9007 | 0.59

Cc1cccc([N+](=O)[O-])c1 + CC1CCCCC1
303.15 K, 101.33 kPa
Conditions | viscosity [mPa·s]
x1 = 0.202 | 0.77
x1 = 0.4 | 0.89
x1 = 0.6 | 1.09
x1 = 0.799 | 1.43

CCOC(=O)c1ccccc1 + Cc1ccccc1Cl
viscosity [mPa·s], 101 kPa
Conditions | 303.15 K | 313.15 K
x1 = 0.0262 | 0.899 | 0.753
x1 = 0.0785 | 0.926 | 0.772
x1 = 0.1304 | 0.952 | 0.793
x1 = 0.2081 | 0.996 | 0.826
x1 = 0.2594 | 1.022 | 0.846
x1 = 0.3343 | 1.067 | 0.881
x1 = 0.3851 | 1.099 | 0.906
x1 = 0.4613 | 1.149 | 0.945
x1 = 0.5356 | 1.208 | 0.99
x1 = 0.6108 | 1.274 | 1.041
x1 = 0.709 | 1.375 | 1.12
x1 = 0.8085 | 1.497 | 1.215
x1 = 0.9045 | 1.635 | 1.323

CCCCCCCCCl + CCCCC
298 K, 101.3 kPa
Conditions | viscosity [mPa·s]
x2 = 0.1047 | 0.9664
x2 = 0.2064 | 0.8559
x2 = 0.3057 | 0.7414
x2 = 0.4042 | 0.6389
x2 = 0.5005 | 0.5441
x2 = 0.6018 | 0.4631
x2 = 0.7019 | 0.3926
x2 = 0.8048 | 0.324
x2 = 0.8982 | 0.2747

O=C(C=Cc1ccccc1)c1ccccc1 + CCO
viscosity [mPa·s], 101 kPa
Conditions | x1 = 0.000144 | x1 = 0.000288 | x1 = 0.0005755 | x1 = 0.00115 | x1 = 0.002298 | x1 = 0.004586
298.15 K | 1.102 | 1.141 | 1.216 | 1.256 | 1.283 | 1.356
303.15 K | 1.01 | 1.049 | 1.115 | 1.156 | 1.181 | 1.255
308.15 K | 0.9181 | 0.9561 | 1.014 | 1.056 | 1.079 | 1.154

[Li+].[O-][Cl+3]([O-])([O-])[O-] + O=S1(=O)CCCC1
101 kPa, x1 = 0.1
Conditions | viscosity
303.15 K | 28.58 mPa·s and 28.57 mPa·s
308.15 K | 24.56 mPa·s
313.15 K | 20.83 mPa·s
318.15 K | 18.28 mPa·s
323.15 K | 16.02 mPa·s

CNS(C)(=O)=O + CC(=O)N(C)C
303.15 K, 101.33 kPa
Conditions | viscosity [mPa·s]
x1 = 0.1009 | 1.104
x1 = 0.2022 | 1.473
x1 = 0.2303 | 1.578
x1 = 0.4082 | 2.571
x1 = 0.4802 | 3.127
x1 = 0.6009 | 4.202
x1 = 0.7019 | 5.204
x1 = 0.7958 | 6.184
x1 = 0.8966 | 7.185

CC1CCCCC1 + C1COCCO1
303.15 K, 101.3 kPa
Conditions | viscosity [mPa·s]
x2 = 0.1001 | 0.6334
x2 = 0.2013 | 0.6394
x2 = 0.296 | 0.653
x2 = 0.3948 | 0.6802
x2 = 0.5046 | 0.7196
x2 = 0.5993 | 0.7612
x2 = 0.7003 | 0.8213
x2 = 0.7956 | 0.8868
x2 = 0.896 | 0.9775

CCCNCCC + CCCCCCCCCCO
viscosity [mPa·s], 101.33 kPa
Conditions | x1 = 0.1006 | x1 = 0.1963 | x1 = 0.2905 | x1 = 0.3847 | x1 = 0.5117 | x1 = 0.618 | x1 = 0.7197 | x1 = 0.8159 | x1 = 0.895
303.15 K | 7.53 | 6.262 | 5.075 | 3.99 | 2.748 | 1.943 | 1.364 | 0.9795 | 0.7427
313.15 K | 5.817 | 4.775 | 3.828 | 2.993 | 2.07 | 1.486 | 1.076 | 0.7925 | 0.6095

N#CCc1ccccc1 + ClC=C(Cl)Cl
Conditions | viscosity [mPa·s]
303.15 K, 101 kPa, x1 = 0.819 | 1.455

CCCCCN + CCC(=O)O
viscosity [mPa·s], 101.33 kPa
Conditions | 293.15 K | 298.15 K | 298.5 K | 303.15 K | 308.15 K | 313.15 K | 318.15 K | 323.15 K
x2 = 0.1 | 1.62 | 1.53 | – | 1.42 | 1.4 | 1.32 | 1.24 | –
x2 = 0.2 | 1.97 | 1.86 | – | 1.74 | 1.69 | 1.6 | 1.51 | –
x2 = 0.3 | 13.7 | 11.78 | – | 10.12 | 8.82 | 7.77 | 6.87 | –
x2 = 0.4 | 85.81 | – | 71.98 | 56.82 | 46.99 | 39.47 | 33.6 | 28.82
x2 = 0.5 | 707.8 | 510.2 | – | 386 | 296.3 | 226.2 | 178.3 | –
x2 = 0.6 | 368.1 | 274.6 | – | 210 | 164.6 | 130.8 | 103.8 | –
x2 = 0.7 | 75.4 | 60.4 | – | 48.75 | 40.4 | 33.8 | 28.4 | –

CCCNCCC + CCCCOCCO
viscosity [mPa·s], 100 kPa
Conditions | 298.15 K | 303.15 K | 308.15 K
x2 = 0.05 | 0.558 | 0.519 | 0.489
x2 = 0.1003 | 0.62 | 0.576 | 0.538
x2 = 0.1502 | 0.691 | 0.64 | 0.597
x2 = 0.1999 | 0.775 | 0.709 | 0.662
x2 = 0.2999 | 0.982 | 0.888 | 0.826
x2 = 0.3998 | 1.254 | 1.118 | 1.035
x2 = 0.5001 | 1.549 | 1.37 | 1.255
x2 = 0.5999 | 1.887 | 1.654 | 1.51
x2 = 0.6997 | 2.216 | 1.935 | 1.752
x2 = 0.7999 | 2.527 | 2.18 | 1.97
x2 = 0.8996 | 2.731 | 2.356 | 2.141
x2 = 0.9499 | 2.787 | 2.437 | 2.209

CNS(C)(=O)=O + c1ccncc1
303.15 K, 101.33 kPa
Conditions | viscosity [mPa·s]
x1 = 0.1002 | 1.039
x1 = 0.1975 | 1.31
x1 = 0.2809 | 1.61
x1 = 0.403 | 2.214
x1 = 0.5037 | 2.832
x1 = 0.5728 | 3.346
x1 = 0.7024 | 4.52
x1 = 0.8 | 5.676
x1 = 0.894 | 6.925

CC(C)CC1CCCCC1 + CCCCCCCCCCCC
viscosity [mPa·s], 102 kPa
Conditions | x1 = 0.1 | x1 = 0.2011 | x1 = 0.3007 | x1 = 0.4005 | x1 = 0.4977 | x1 = 0.5997 | x1 = 0.6989 | x1 = 0.7996
293.15 K | 1.46 | 1.42 | 1.39 | 1.35 | 1.32 | 1.29 | 1.25 | 1.22
303.15 K | 1.23 | 1.2 | 1.17 | 1.14 | 1.12 | 1.09 | 1.07 | 1.04
313.15 K | 1.05 | 1.02 | 1 | 0.982 | 0.965 | 0.942 | 0.922 | 0.903
323.15 K | 0.902 | 0.889 | 0.874 | 0.856 | 0.842 | 0.824 | 0.809 | 0.793

CCCCCCCCCCCCCCCCCCCCCCCC + CCCCCCC
Conditions | viscosity [mPa·s]
313.2 K, 101.3 kPa, x1 = 0.198 | 0.9672

CCCNCCC + CCCOCCO
viscosity [mPa·s], 101.33 kPa
Conditions | 298.15 K | 308.15 K | 318.15 K
x2 = 0.0247 | 0.53 | 0.463 | 0.401
x2 = 0.075 | 0.592 | 0.511 | 0.435
x2 = 0.125 | 0.657 | 0.564 | 0.473
x2 = 0.1902 | 0.753 | 0.636 | 0.529
x2 = 0.2692 | 0.889 | 0.737 | 0.602
x2 = 0.3692 | 1.09 | 0.883 | 0.709
x2 = 0.4334 | 1.228 | 0.985 | 0.782
x2 = 0.476 | 1.329 | 1.058 | 0.833
x2 = 0.5289 | 1.463 | 1.153 | 0.903
x2 = 0.623 | 1.686 | 1.318 | 1.021
x2 = 0.723 | 1.94 | 1.507 | 1.157
x2 = 0.8063 | 2.136 | 1.656 | 1.269
x2 = 0.9114 | 2.293 | 1.78 | 1.362
x2 = 0.9598 | 2.322 | 1.846 | 1.413
x2 = 0.9731 | 2.333 | 1.863 | 1.428
